Entries after “also recorded” stand apart in the source; their conditions may differ. Blank lines part the entries; values can stand above or below the molecule they belong to.
Tests used:
RKO cells [1] = test: Live-cell calcium imaging of spontaneous calcium transients (GCaMP5); type: cell-based, human; conditions: for spontaneous calcium transients: FIG. 4C; for propagation of calcium transients: FIG. 5E
Procedure: (§1) 2 mg/ml neomycin was added to the cell culture medium 48 hrs after transfection to generate cell lines with stable GCaMP5 expression and removed one week prior to the initiation of experiment. Calcium transients were captured by live-cell imaging using a confocal microscope. Time lapse imaging was setup so that an image was captured every 0.5 s for 30 minutes, with an exposure time of 0.5 s. Calcium measurements were normalized to background fluorescence and the relative change in calcium (F(t)) over time was calculated by the formula: […]
where F0 was defined as the average intensity of the 20% lowest grey values in a region of interest (ROI), F was defined as the normalized grey values of ROI in time point t. Global synchronicity was calculated by cross correlation method in FluoroSNNAP (seas.upenn.edu/˜molneuro/fluorosnnap.html).

RKO cells [2] = test: Wound healing (scratch) assay with calcium wave imaging; type: cell-based, human; conditions: for display of primary and secondary calcium waves after scratching: FIG. 19E-F, verapamil 500 nM
Procedure: Wild-type or BCL9 knockout cells were grown in 6-well plates or Nunc™ Glass Bottom Dishes (150680, ThermoFisher®) for 24 hrs until cells reached 90% confluency. A 1 ml pipette tip was used to scratch the monolayer of cells across the center of each well. The cells were imaged at 0 and 24 hours after scratching. To investigate the effect of BCL9 on calcium waves (FIG. 5H), cells were cultured in glass-bottomed 96-well plates for 24 hrs until they reached 90% confluency. […] A 200 μl pipette tip was used to scratch the cell monolayer from the top left to the bottom right corner of the well. At various times after the scratch was made, cells were fixed with 4% paraformaldehyde for 15 minutes at room temperature. Immunofluorescence was subsequently used to identify the location of BCL9 (see immunofluorescence method section for more detail). The wound edge in the center of the well was defined as “adjacent” and the area in the top right corner was defined as “distance” (FIG. 4H).
as §1, with “To trace the calcium transient in real time, GCaMP5G (#31788, Addgene®) was transfected into wild-type or BCL9 knockout RKO and Colo320 cell lines. 2” for “2”, “Time lapse imaging was setup so that an image was captured every 0.5 s for 30 minutes, with an exposure time of 0.5 s.” left out
where F0 was defined as the average intensity of the 20% lowest grey values in a region of interest (ROI), F was defined as the normalized grey values of ROI in time point t. Global synchronicity was calculated by cross correlation method in FluoroSNNAP (seas.upenn.edu/˜molneuro/fluorosnnap.html). The frequency spectrum was calculated by fast Fourier transform (Uhlen, P. (2004). Sci. STKE 2004, p 115), the time difference between each sample is 0.5 s.

[3] = tested on: RGS4, CACNA2D1, ADRB1 mRNA; test: mRNA expression by RNA-seq / qRT-PCR; type: cell-based, human; conditions: both wild-type and BCL9 knockout RKO cells, qRT-PCR, FIG. 17A
Procedure: RNA was extracted from wild type and BCL9 knockout RKO cells with or without Poly I:C treatment (1 μg/ml) and subsequently purified using the TURBO DNA-free™ Kit (AM1907, invitrogen) to remove any residual DNA. An RNA library was prepared using the ribosome RNA removing method and sequenced with a 150 bp paired-end protocol in the Center for Cancer Computational Biology at the Dana Farber Cancer Institute (PRJNA554110). After quality control (QC) analysis was performed using fastQC, the first 10 bases were trimmed for each read. STAR software was used to map the readings to the human genome (hg19) and duplicates were removed using Picard. HTSeq was used to evaluate the gene expression levels by the count number for each gene and were subsequently annotated using the Ensemble database. Gene differential analysis was then applied to the expression profiling table using R package edgeR. For further analysis, the difference in exon usage between different conditions was calculated and R package DEXSeq was used to find differences between them.

RKO cells [4] = test: In vivo mouse xenograft model (RKO-luciferase, intraperitoneal)
Procedure: A total of 4×10^6 wild-type or BCL9 knockout RKO cells stably transduced with a reporter expressing Luciferase were injected intraperitoneally into CB17.Cg-PrkdcscidLystbg-J/Crl (Beige) mice (n=7 per group), and tumor burden was monitored by whole-body imaging using Xenogen system every week for 4 weeks, starting one day after injection of cells. After last imaging, all mice were euthanized and all tumor nodules identified in the peritoneal cavity were dissected and processed for histological and immunohistochemical analysis. To quantify β-catenin and Ki-67 stains serial consecutive sections were scanned using Vectra 2 Intelligent Slide Analysis system; percentage of positive cells (Ki-67, CD163, CD31, or αSMA) or areas (β-catenin) were assessed using inform Cell Analysis software (PerkinElmer®). P-values were calculated using unpaired Student's t-test. Propranolol hydrochloride (Millapore-Sigma®) was added to the drinking water at a concentration of 0.5 g/L on the injection day. Drug solution was renewed every 2 days.
TMA sections (from Oncology Pathology, Dana Farber Cancer Institute) were pre-heated at 65 degrees for 20 mins and then deparaffined by performing the following washing steps: xylene 3×5 mins, 100% ethanol 5 mins, 95% ethanol 5 mins, 75% ethanol 5 mins, 50% ethanol 5 mins, 25% ethanol 5 mins, and rinsed by cold water. Sections were subsequently heated in a microwave with antigen retrieval buffer (10 mM Tris Base, 1 mM EDTA Solution, 0.05% Tween 20, pH 9.0). Sections were washed twice with TBS plus 0.5% Triton X-100 (v/v) and blocked with 5% BSA for 1 hr at room temperature. Sections were incubated overnight with the following antibodies at 4 degrees: BCL9 (ab37305, Abcam®), FAP (AF3715, R&D), β-catenin (610154, BD Transduction Laboratories), SYP (PA0299, Lecia), PDGFB (ab23914, Abcam®), C3 (HPA003563, Millapore-Sigma®), RGS4 (sc-398348, Santa Cruz®), CD163 (182422, Abcam®), CD31 (77699, Cell Signaling®), αSMA (19245, Cell Signaling®), or Axin2 (#2151, Cell Signaling®). The sections were washed three times before incubation with secondary antibody for 2 hours at room temperature. The sections were then washed three times before signal amplification with HRP polymer or fluorescence. ImageJ2 software was used to carry out semi-quantitative analysis of the staining intensities, which ranged from 0 (negative) to 3 (strong staining). Subsequently the H-score was calculated using the following formula;

[5] = tested on: RKO, Colo320, SW620, LS174T, DLD-1 cells; test: Cell viability assay of CRC cell lines; conditions: Colo320, and SW620 more than LS174T or DLD-1 cells, increased concentrations, FIG. 20C
B-cell lymphoma 9 (BCL9) = target: T1, B-cell lymphoma 9 (BCL9) (human, UniProt O00512 1-1426); test: co-IP with anti-β-catenin antibody, untreated and poly I:C treated Colo320 cells
T1 construct: Endogenous protein in nuclear lysates of human CRC cell lines (RKO, Colo320, SW620, LS174T, DLD-1)
T1 sequence: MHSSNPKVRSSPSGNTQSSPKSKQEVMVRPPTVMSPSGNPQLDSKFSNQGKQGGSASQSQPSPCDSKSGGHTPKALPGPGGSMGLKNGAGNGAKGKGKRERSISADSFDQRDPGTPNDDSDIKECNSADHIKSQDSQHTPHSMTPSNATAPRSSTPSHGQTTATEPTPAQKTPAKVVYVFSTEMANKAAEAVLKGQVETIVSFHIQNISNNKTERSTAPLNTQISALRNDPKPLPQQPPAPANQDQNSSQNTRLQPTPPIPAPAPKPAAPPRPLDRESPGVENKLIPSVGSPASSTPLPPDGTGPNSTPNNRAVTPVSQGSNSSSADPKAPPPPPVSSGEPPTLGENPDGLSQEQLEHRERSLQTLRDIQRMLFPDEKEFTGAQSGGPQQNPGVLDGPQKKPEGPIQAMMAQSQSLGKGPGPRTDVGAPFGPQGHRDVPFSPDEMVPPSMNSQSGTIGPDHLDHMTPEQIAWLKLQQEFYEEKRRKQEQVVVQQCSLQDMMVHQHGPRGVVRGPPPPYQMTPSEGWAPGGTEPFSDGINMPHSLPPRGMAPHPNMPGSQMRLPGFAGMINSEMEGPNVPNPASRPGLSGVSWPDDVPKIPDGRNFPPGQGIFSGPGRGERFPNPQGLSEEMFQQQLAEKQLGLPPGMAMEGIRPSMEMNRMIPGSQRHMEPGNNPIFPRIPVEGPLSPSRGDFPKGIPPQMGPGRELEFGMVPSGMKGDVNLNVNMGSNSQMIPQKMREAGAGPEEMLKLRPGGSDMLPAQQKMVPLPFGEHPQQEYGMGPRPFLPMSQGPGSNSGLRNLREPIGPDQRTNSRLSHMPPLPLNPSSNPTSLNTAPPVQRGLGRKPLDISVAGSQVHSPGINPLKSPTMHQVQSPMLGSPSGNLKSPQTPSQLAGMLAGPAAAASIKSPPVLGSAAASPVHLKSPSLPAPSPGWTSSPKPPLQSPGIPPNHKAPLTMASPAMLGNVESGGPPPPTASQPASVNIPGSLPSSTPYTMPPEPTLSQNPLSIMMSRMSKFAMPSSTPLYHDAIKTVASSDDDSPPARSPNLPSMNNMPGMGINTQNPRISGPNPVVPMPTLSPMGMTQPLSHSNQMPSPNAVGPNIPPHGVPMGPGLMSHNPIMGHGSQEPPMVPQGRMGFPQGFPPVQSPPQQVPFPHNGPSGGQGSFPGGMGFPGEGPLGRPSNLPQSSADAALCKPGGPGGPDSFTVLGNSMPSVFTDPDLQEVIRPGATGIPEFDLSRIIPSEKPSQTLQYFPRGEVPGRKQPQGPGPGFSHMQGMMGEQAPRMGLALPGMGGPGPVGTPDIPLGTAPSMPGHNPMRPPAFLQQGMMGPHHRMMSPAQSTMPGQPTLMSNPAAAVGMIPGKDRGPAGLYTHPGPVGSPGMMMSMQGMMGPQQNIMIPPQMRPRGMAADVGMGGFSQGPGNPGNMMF

Molecule: O=C(O)CN(CCN(CC(=O)O)CC(=O)O)CC(=O)O [EDTA, ethylene diamine tetra-acetic acid]
spontaneous calcium transients (RKO cells [1]; RKO cells): disappeared
display of primary and secondary calcium waves after scratching (RKO cells [2]): disappeared; also recorded: blocked

Molecule: CC(C)(C)NCC(O)c1cc(O)cc(O)c1 (stereo not drawn) [Terbutaline]
propagation of calcium transients (RKO cells [1]; BCL9 knockout RKO cells): not
propagation of calcium transients (RKO cells [1]; wild-type RKO cells): induced

Molecule: NCCc1ccc(O)c(O)c1 [dopamine]
expression of RGS4 and CACNA2D1 mRNAs [3]: increased

Molecule: CC(C)NCC(O)COc1cccc2ccccc12 (stereo not drawn) [propranolol, 2-propanol, 1-[(1-methylethyl)amino]-3-(1-naphthalenyloxy)]
number of endothelial cells within tumor microenvironment (CD31) (RKO cells [4]; RKO xenograft, FIG. 6H-I): marked reduction
number of mouse derived M2 macrophages within tumor microenvironment (CD163) (RKO cells [4]; RKO xenograft, FIG. 6H-I): marked reduction
number of myofibroblast cells within tumor microenvironment (αSMA) (RKO cells [4]; RKO xenograft, FIG. 6H-I): not
expression of Axin2 in xenograft tumors (RKO cells [4]; control vs treated groups): did not display differences
mice that had died with extensive tumor burden (RKO cells [4]; three weeks after RKO cell injection, 0.5 g/L in drinking water, n=7): none
tumor burden (whole-body imaging) (RKO cells [4]; three weeks post tumor injection, 0.5 g/L in drinking water): disappeared in most
amplitude, frequency, and synchronicity of spontaneous calcium waves (RKO cells [1]; RKO cells, FIG. 20B): reduced
viability of CRC cell lines [5]: significantly reduced
calcium transient activation after scratching (RKO cells [2]; FIG. 5F): inhibited calcium transients only in a subset of cells; also recorded: very few of them were activated

Molecule: COc1ccc(CCN(C)CCCC(C#N)(c2ccc(OC)c(OC)c2)C(C)C)cc1OC (stereo not drawn) [verapamil, Benzeneacetonitrile, α-[3-[[2-(3,4-dimethoxyphenyl)ethyl]methylamino]propyl]-3,4-dimethoxy-α-(1-methylethyl)]
spontaneous calcium transients (RKO cells [1]; RKO cells): disappeared
viability of CRC cell lines [5]: significantly reduced
display of primary and secondary calcium waves after scratching (RKO cells [2]): disappeared; also recorded: blocked

binding result (B-cell lymphoma 9 (BCL9)): binds
B1: β-catenin (other, UniProt P35222 2-781, looked up)
chain: ATQADLMELDMAMEPDRKAAVSHWQQQSYLDSGIHSGATTTAPSLSGKGNPEEEDVDTSQVLYEWEQGFSQSFTQEQVADIDGQYAMTRAQRVRAAMFPETLDEGMQIPSTQFDAAHPTNVQRLAEPSQMLKHAVVNLINYQDDAELATRAIPELTKLLNDEDQVVVNKAAVMVHQLSKKEASRHAIMRSPQMVSAIVRTMQNTNDVETARCTAGTLHNLSHHREGLLAIFKSGGIPALVKMLGSPVDSVLFYAITTLHNLLLHQEGAKMAVRLAGGLQKMVALLNKTNVKFLAITTDCLQILAYGNQESKLIILASGGPQALVNIMRTYTYEKLLWTTSRVLKVLSVCSSNKPAIVEAGGMQALGLHLTDPSQRLVQNCLWTLRNLSDAATKQEGMEGLLGTLVQLLGSDDINVVTCAAGILSNLTCNNYKNKMMVCQVGGIEALVRTVLRAGDREDITEPAICALRHLTSRHQEAEMAQNAVRLHYGLPVVVKLLHPPSHWPLIKATVGLIRNLALCPANHAPLREQGAIPRLVQLLVRAHQDTQRRTSMGGTQQQFVEGVRMEEIVEGCTGALHILARDVHNRIVIRGLNTIPLFVQLLYSPIENIQRVAAGVLCELAQDKEAAEAIEAEGATAPLTELLHSRNEGVATYAAAVLFRMSEDKPQDYKKRLSVELTSSLFRTEPMAWNETADLGLDIGAQGEPLGYRQDDPSYRSFHSGGYGQDALGMDPMMEHEMGGHHPGADYPVDGLPDLGHAQDLMDGLPPGDSNQLAWFDTDL
notes: Endogenous protein in cell lysates; co-IP with anti-β-catenin (9562L, Cell Signaling) or anti-BCL9 antibody; also called B-catenin
